From article PMC7983170 (Biochemical pharmacology, 2018)

Biological target: T1, ABCG2 (Homo sapiens, UniProt Q9UNQ0)
T1 sequence (Q9UNQ0 1-655): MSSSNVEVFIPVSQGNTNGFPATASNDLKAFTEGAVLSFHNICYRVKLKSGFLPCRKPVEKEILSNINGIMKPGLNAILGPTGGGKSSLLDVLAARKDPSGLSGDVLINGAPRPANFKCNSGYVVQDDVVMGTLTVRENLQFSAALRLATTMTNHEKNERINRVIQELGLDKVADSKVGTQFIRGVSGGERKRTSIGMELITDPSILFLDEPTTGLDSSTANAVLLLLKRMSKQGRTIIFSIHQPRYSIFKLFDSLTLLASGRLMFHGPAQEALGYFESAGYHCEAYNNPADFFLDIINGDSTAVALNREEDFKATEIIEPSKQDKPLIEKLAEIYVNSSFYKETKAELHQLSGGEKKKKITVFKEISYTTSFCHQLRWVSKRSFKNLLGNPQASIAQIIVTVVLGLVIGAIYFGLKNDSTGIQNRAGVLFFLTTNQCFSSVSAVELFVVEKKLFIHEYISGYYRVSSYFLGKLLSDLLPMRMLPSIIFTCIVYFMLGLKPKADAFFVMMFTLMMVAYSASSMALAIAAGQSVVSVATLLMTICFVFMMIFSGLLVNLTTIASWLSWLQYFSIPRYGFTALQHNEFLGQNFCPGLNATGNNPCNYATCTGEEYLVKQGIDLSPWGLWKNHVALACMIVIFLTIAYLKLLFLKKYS
Test: stimulation of vanadate-sensitive ATPase activity in membrane vesicles
Format: biochemical

EC50: ~14.7 µM
SMILES: O=C(CCCCCCNC(=O)c1cnc(N(c2ccccc2)c2ccccc2)nc1)NO [ricolinostat]
